Test results as given in patent US20100190187A1, “Screening Assays for Antagonists and Analyses of Cardiac Hypertrophy” (The Regents of the University of Michigan Office of …, priority 2006, published 2010).

What was measured:
HL-1 cells [1] = test: Western blot of hypertrophy biomarkers in HL-1 cells; format: cell-based, murine; details: for dose dependence of expression of the VDR: FIG. 13(C), compared to control
Description: Screening assays employing incubation of VDR containing cells with and without a test compound. Cell extracts can be prepared and screened for increases or decreases of cardiac hypertrophy biomarkers or increase in PKC activity, VDR expression, myotrophin expression, using antibody detection methods described herein. Equivalent protein quantities of test compound cell extracts and control cell extracts can be loaded onto continuous or discontinuous PAGE gels and electrophoresed from 15 min to 24 hours, depending on the size of the gel. Following electrophoresis, the proteins can be electrophoretically transferred to PVDF membranes and probed with antibodies specific for example to Protein Kinase C and downstream regulated products c-myc, VDR, ANP, calbindin 9 and 32 and myotrophin. Bound antibodies can be visualized using chemiluminescent detection, chromatic detection or any method of detection of labeled membrane bound antibodies otherwise known as Western blotting. […] In FIG. 13(A), Western blots reveal that when HL-1 cells are incubated in the presence of a control sample (left lane) and a test compound (right lane). In some embodiments, for example, Vitamin D3 analog or metabolite, can be the test compound, or Vitamin D3 can be a control to measure the activity of the test compound. As shown in FIG. 13(A), Vitamin D3 reduces the expression of ANP, c-myc and calbindin 9 as compared to cells not incubated in the presence if Vitamin D3. […] Vitamin D3 has a positive up-regulating effect upon the expression of the VDR in HL-1 cells.
Treated and control samples of HL-1 cells are trypsinized and removed from flasks. Cell counts are performed under microscope with a Fisher hemacytometer. Samples are centrifuged at 3000 RPM for 2 minutes to obtain a pellet, which is then re-suspended in an SDS-leupeptin sample buffer (SB). This whole cell lysate can then be boiled for 15 minutes, separated into working aliquots, and stored at −20° C. for analysis. Standard Bradford Protein Determination is then performed on all samples. Samples are then electrophoresed as described in Example 4. Following electrophoresis, protein is transferred onto a PVDF (Millipore) membrane. After blocking the membrane for one hour with 5% milk in TBS containing 0.05% Tween 20 (Sigma), the blots are incubated with primary and secondary antibodies according to the dilutions listed below. The blot is washed three times in TBS/0.5% Tween 20 after each incubation, followed by one final wash in TBS. The membrane can then be treated with ECL developer (Amersham Biosciences) and exposed to Kodak Biomax XAR film. To confirm equal loading of protein into the wells each blot can be stripped and re-probed with HRP conjugated goat anti-mouse actin antibody (sc-1616HRP; Santa Cruz Biotechnology Co; 1:1000). The primary antibodies that can be used include rabbit anti-mouse VDR (sc-1008; Santa Cruz Bio; 1:200 dilution); rabbit anti-mouse ANP (AB 5490; Chemicon; 1:500 dilution), mouse monoclonal anti-myotrophin (V11220; BD Transduction Laboratory; 1:1000), rabbit anti-mouse c-myc (sc-764, Santa Cruz Bio; 1:100), and goat anti-mouse calbindin-9 (sc-18038, Santa Cruz Bio; 1:100). The secondary antibodies which can be used include HRP conjugated goat anti-rabbit (AP 132P, Chemicon; 1:1000) for VDR, ANP, and c-myc. HRP conjugated goat anti-mouse (A 2304, Sigma; 1:1000), and bovine anti-goat Ab (sc2350, Santa Cruz Bio; 1:250), for myotrophin and calbindin-9, respectively.

HL-1 cells [2] = test: HL-1 cell growth and proliferation; format: cell-based, murine; details: compared to HL-1 cells incubated with vehicle, FIG. 10
Description: HL-1 cells are obtained from Dr. W. C. Claycomb, Louisiana State University Medical Center, New Orleans, La. HL-1 cells (passages 55-75) are maintained at 37° C. under a 5% C02/air atmosphere in Claycomb medium (JRL Bioscience) supplemented with 10% fetal bovine serum, 0.29 mg/mL L-glutamine, 100 units/mL penicillin, 100 μg/mL streptomycin (all Gibco), and 0.1 mM norepinephrine (Sigma). The medium can be replaced approximately every 24 hours. HL-1 cells were grown in T25 culture flasks which were precoated overnight with 2 μg/cm fibronectin/0.02% gelatin solution. […]
HL-1 cells are grown in 10% FCS-supplemented medium or medium supplemented with 1% ITS and treated with either 0.1% EtOH (control vehicle), 1, 10 or 100 nM 1,25(OH) 2D3, 100 nM PMA or 1 mM PMA or 1 mM 24,25(OH) 2D3 or 25(OH)D3 for 2 or 4 days. At each time point the myocytes are removed from the dish using a Trypsin-EDTA solution (Sigma Chemical, St. Louis, Mo.) and counted using a Coulter Counter (Model ZF, Coulter Electronics, Hialeah, Fla.). Protein levels can be determined after 2 days using the Bradford protein assay (14). […] The HL-1 cells can then be examined on a flow cytometer (Coulter Elite, Coulter Electronics, Hialeah, Fla.) and cell cycle distribution can be determined by using MODFIT (v. 5.2).

C=C1CC[C@H](O)C/C1=C/C=C1\CCC[C@]2(C)[C@@H]([C@H](C)CCCC(C)C)CC[C@@H]12 [Vitamin D3]
levels of intracellular ANP (HL-1 cells [1]; FIG. 13(A)): significantly reduced levels | levels of intracellular Calbindin 9 (HL-1 cells [1]; FIG. 13(A)): significantly reduced levels | levels of intracellular c-myc (HL-1 cells [1]; FIG. 13(A)): significantly reduced levels | expression of the VDR (HL-1 cells [1]; FIG. 13(B), 1 and 24 hours post exposure): up-regulated | dose dependence of expression of the VDR (HL-1 cells [1]): dose dependent | dose dependence of expression of the VDR (HL-1 cells [1]; listed as Vitamin D 3): dose dependent induction of expression of VDR | inhibition of HL-1 growth / cellular proliferation (HL-1 cells [2]): dose dependent inhibition of cellular proliferation | inhibition of HL-1 growth / cellular proliferation (HL-1 cells [2]; listed as Vit D): dose dependent inhibition of HL-1 growth
